In patent publication US12220421B2, “Inhibitors of C. difficile spore germination” (THE BOARDS OF REGENTS OF THE NEVADA SYSTEM OF HIGHER …, priority 2021, dated 2025):
Entries after “also recorded” stand apart in the source; their conditions may differ.

Experiments:
[1] = tested on: C. difficile R20291 spores; conditions: hypervirulent R20291 strain, literature; cited from earlier work
C. difficile 630 strain [2] = conditions: literature, cited from earlier work; for IC50: read-out: IC50 against 630 strain
[3] = target: C. difficile spore germination; conditions: literature values; read-out: Ki, inhibition of germination; cited from earlier work
[4] = Incubation with feces / murine microbiota (degradation); assay type: in vitro ADME; conditions: 3 days incubation with feces
[5] = tested on: C. difficile R20291 spores; assay: C. difficile spore germination assay (optical density, OD580); conditions: Clostridioides difficile, R20291SPORES, 6 mM taurocholate, 12 mM glycine
C. difficile 630 strain [6] = assay: Spore germination inhibition against C. difficile 630 strain (literature); assay type: cell-based

Row | Compound | Activity against R20291 strain [1] | IC50 (C. difficile 630 strain [2]) [mM] | Activity against 630 strain (C. difficile 630 strain [2]) | Ki [3] [µM] | Degradation on incubation with feces [4] | IC50 ([5]; Table 3) [µM] | activity at 125 µM ([5]; read-out: % Germination, Table 3, compound 125 μM, ± standard deviation) [%] | Potency relative to the cholate derivative CamSA (less potent) (C. difficile 630 strain [6])
1 | C[C@H](CCC(=O)Nc1cccc(S(=O)(=O)O)c1)[C@H]1CC[C@H]2[C@@H]3[C@H](O)C[C@@H]4C[C@H](O)CC[C@]4(C)[C@H]3C[C@H](O)[C@]12C [CamSA] | no inhibitory or prophylactic activity; also recorded: inactive | 0.058 | active | 50 |  |  |  | 
2 | C[C@H](CCc1ncc2ccccc2n1)[C@H]1CC[C@H]2[C@@H]3[C@H](O)C[C@@H]4C[C@H](O)CC[C@]4(C)[C@H]3C[C@H](O)[C@]12C [Compound 29] |  |  |  |  | not degraded | 22 ± 3 | 17 ± 3 | 
3 | C[C@H](CCC(=O)Nc1cccc(S(=O)(=O)O)c1)[C@H]1CC[C@H]2[C@@H]3[C@H](O)C[C@@H]4C[C@H](O)CC[C@]4(C)[C@H]3CC[C@]12C [chenodeoxycholic analog of CamSA] |  | 6.5 |  |  |  |  |  | approximately 100 fold
